The results in this text go back to patent publication US9493451B2 (Bionomics Limited, priority 2011, dated 2016).

In this experiment the target is T1, Kv1.3 (Homo sapiens, UniProt P22001).
T1 construct: expressed in transfected cells; host or cells: CHO (Kv1.3/CHO)
T1 sequence (P22001 whole entry): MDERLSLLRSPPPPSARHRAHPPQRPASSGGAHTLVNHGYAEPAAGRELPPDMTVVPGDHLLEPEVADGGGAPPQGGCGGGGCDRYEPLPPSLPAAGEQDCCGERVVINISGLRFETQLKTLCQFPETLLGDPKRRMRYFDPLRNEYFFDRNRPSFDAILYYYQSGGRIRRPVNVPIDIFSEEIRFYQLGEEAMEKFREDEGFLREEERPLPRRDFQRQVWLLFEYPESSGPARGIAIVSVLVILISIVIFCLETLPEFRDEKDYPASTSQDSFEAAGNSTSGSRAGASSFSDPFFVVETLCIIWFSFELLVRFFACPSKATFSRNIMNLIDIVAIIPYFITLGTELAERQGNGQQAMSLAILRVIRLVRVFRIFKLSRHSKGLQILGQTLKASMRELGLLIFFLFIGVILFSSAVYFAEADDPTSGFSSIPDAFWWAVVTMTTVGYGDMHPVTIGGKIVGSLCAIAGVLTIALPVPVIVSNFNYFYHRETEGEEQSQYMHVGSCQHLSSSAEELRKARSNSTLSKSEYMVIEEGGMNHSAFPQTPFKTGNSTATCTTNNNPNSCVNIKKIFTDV
Put plainly: Electrophysiology: planar patch-clamp of Kv1.3 currents, IC50 from steady state current amplitude. The experiment is classed as cell-based. Conditions: Kv1.3 electrophysiology, results according to Method D1, read-out: IC50 (Kv1.3 ephys steady state). Here is the method:
The inhibition data shown for the compounds of the list below was calculated using the steady state current amplitude at the end of the depolarising pulse in patch clamp evaluations (as described in the Biology Protocols: 1. Electrophysiology).
Kv1.x currents were measured in Kv1.3/CHO or Kv1.5/CHO cells using a planar electrode version (Nanion Technologies GMBH) of the patch-clamp technique. Whole-cell Kv1.x current transients were evoked by 500 ms depolarising voltage pulses to +40 mV from a holding potential of −80 mV applied at 10 s intervals for Kv1.5 and at 30 s intervals for Kv1.3 to allow adequate time for recovery from inactivation. Cells were continuously bathed in a buffered saline solution containing (mM): 160 NaCl, 4.5 KCl, 2 CaCl2, 1 MgCl2, 5 glucose, 10 HEPES, pH 7.4, 290-310 mOsm·Kg^−1. The internal (pipette) solution contained (mM): 10 NaCl, 70 KF, 75 KCl, 2 MgCl2, 10 HEPES, 10 EGTA, pH 7.2, 290-310 mOsm·Kg^−1. Series resistance compensation (60-80%) was applied to cells in which the peak current amplitude exceeded 2 nA.
Compound Preparation and Potency Assessment
Compounds were initially dissolved in DMSO to 10 mM. After further dilution in DMSO, compounds were finally diluted in bath solution 1/200 (to give a final DMSO concentration of 0.5%) and applied directly to the recording chamber. Compounds were added at increasing concentrations allowing ample time for steady state block to be achieved between each concentration. Each compound was tested at 5-6 different concentrations on 2-3 cells. Compound IC50 values were determined by fitting the average normalised reduction of either the current integral or the steady state current amplitude at the end of the 500 ms depolarising pulse obtained at each compound concentration to the Hill equation. The IC50 data reported herein is based on the steady state calculation.
On to `O=C(CC1(c2ccc(F)cc2)CC1)N(Cc1ccccn1)[C@@H](c1ccc(Cl)cc1)C1CC1` (single isomer, unassigned) [Example 95, N-[(4-chlorophenyl)(cyclopropyl)methyl]-2-[1-(4-fluorophenyl)cyclopropyl]-N-(pyridin-2-ylmethyl)acetamide], for which the IC50 – broadly, the midpoint of a concentration-inhibition curve – is less than 50 nM.

In the case of `COc1ccc(CN(C(=O)CS(=O)(=O)c2ccc(F)cc2)C(c2ccc(Cl)cc2)C2CC2)cn1` (centres unmarked) [Example 295], the IC50 lay within 50 to 200 nM. `O=C(CS(=O)(=O)c1ccccc1F)N(Cc1ccc(C(F)(F)F)nc1)C(c1ccc(OC(F)F)cc1)C1CC1` (centres unmarked) [Example 299]: the IC50 is 50 to 200 nM. The same measure for `CC(CC(=O)N(Cc1ccc(C(F)(F)F)nc1)C(C)c1ccc2c(c1)CCC2)c1ccc(F)cc1` (single isomer, unassigned) [Compound 40, N-[1-(2,3-dihydro-1H-inden-5-yl)ethyl]-3-(4-fluorophenyl)-N-{[6-(trifluoromethyl)pyridin-3-yl]methyl}butanamide]: 50 to 200 nM; for `CN1CCC(C(c2ccc(F)cc2F)N(Cc2ccc(F)cn2)C(=O)C2CC2c2ccc(F)cc2)CC1` (centres unmarked) [Example 144]: 200 to 1000 nM. With `CC(C)(c1ccccc1)N(Cc1ccccn1)C(=O)CS(=O)(=O)c1ccc(F)cc1` [Example 101, 2-(4-Fluorophenylsulfonyl)-N-(2-phenylpropan-2-yl)-N-(pyridine-2-ylmethyl)acetamide] the figure was 200 to 1000 nM; with `CN1CC(C(c2ccc(OC(F)F)cc2)N(Cc2ccc(C(F)(F)F)cn2)C(=O)C2CC2c2ccc(F)cc2)C1` (centres unmarked) [Example 161], 200 to 1000 nM; with `CC(C)S(=O)(=O)c1cccc(C(C2CC2)N(Cc2ncccc2F)C(=O)C2CC2c2ccc(F)cc2)c1` (centres unmarked) [Example 245], 200 to 1000 nM.

Turning to `CCS(=O)(=O)c1cccc(C(C2CC2)N(Cc2ccccn2)C(=O)C2CC2c2cccc(C(F)(F)F)c2)c1` (centres unmarked) [Example 216], the IC50 lay in the range of 50 to 200 nM. The same measure for `CCS(=O)(=O)c1cccc(C(C2CC2)N(Cc2ccccn2)C(=O)C2CC2c2cccc(C(F)(F)F)c2)c1` (centres unmarked) [Example 217]: 50 to 200 nM; for `O=C(CS(=O)(=O)c1ccccc1)N(Cc1ccc(C(F)(F)F)nc1)C(c1ccc(OC(F)F)cc1)C1CC1` (centres unmarked) [Example 302]: 50 to 200 nM. With `O=C(CS(=O)(=O)c1cccc(C(F)(F)F)c1)N(Cc1cccc[n+]1[O-])C(c1ccc(Cl)cc1)C1CC1` (centres unmarked) [Example 292] the figure was 200 to 1000 nM. With `CC(C)S(=O)(=O)c1cccc(C(C2CC2)N(Cc2cccnn2)C(=O)C2CC2c2ccc(F)cc2)c1` (centres unmarked) [Example 240] the figure was 200 to 1000 nM; with `O=C(C1CC1c1ccc(F)c(F)c1)N(Cc1cccnn1)C(c1ccc(OC(F)F)cc1)C1CC1` (centres unmarked) [Example 180], 50 to 200 nM. As for `COc1ccccc1[C@@H](C)N(Cc1ccccn1)C(=O)CCc1cccc(C(F)(F)F)c1` [Example 61, N-[(1R)-1-(2-methoxyphenyl)ethyl]-N-(pyridin-2-ylmethyl)-3-[3-(trifluoromethyl)phenyl]propanamide], the IC50 fell in the range of 50 to 200 nM.

`O=C(C1C[C@H]1c1ccc(F)cc1)N(Cc1ccccn1)[C@@H](c1ccc(Cl)cc1)C1CC1` (stereo in doubt) [Example 13, N-[(4-chlorophenyl)(cyclopropyl)methyl]-2-(4-fluorophenyl)-N-(pyridin-2-ylmethyl)cyclopropanecarboxamide]: the IC50 was in the range of 50 to 200 nM. With `CC(C)C(c1ccc(OC(F)F)cc1)N(Cc1ccc(F)cn1)C(=O)C1CC1c1ccc(F)cc1` (centres unmarked) [Example 111] the figure was 50 to 200 nM. The same measure for `Cn1cc(CN(C(=O)C2CC2c2ccc(F)cc2)C(c2ccc(OC(F)F)cc2)C2CC2)cn1` (centres unmarked) [Example 190]: less than 50 nM. On to `CCS(=O)(=O)c1cccc(C(C2CC2)N(Cc2cccnn2)C(=O)C2CC2c2ccc(F)cc2)c1` (centres unmarked) [Example 223], for which the IC50 lay in the range of 50 to 200 nM. On to `O=C(C1CC1c1ccc(F)cc1)N(Cc1ccc(F)cn1)C(c1ccc(F)cc1)C1CCOC1` (centres unmarked) [Example 176], for which the IC50 lay in the range of 50 to 200 nM. With `O=C(C1CC1c1ccc(F)cc1)N(CCN1CCCC(F)(F)C1)C(c1ccc(OC(F)F)cc1)C1CC1` (centres unmarked) [Example 186], the IC50 was 200 to 1000 nM.

In the case of `O=C(C1CC1c1ccc(F)cc1)N(Cc1ccc(F)cn1)C(c1ccc(OC(F)F)cc1)C1CNC1` (centres unmarked) [Example 152], the IC50 was 200 to 1000 nM. With `CN1CC(C(c2ccc(OC(F)(F)F)cc2)N(Cc2ccc(F)cn2)C(=O)C2CC2c2ccc(F)cc2)C1` (centres unmarked) [Example 159] the figure was 200 to 1000 nM; with `CCS(=O)(=O)c1cccc(C(C2CC2)N(Cc2cccnn2)C(=O)C2CC2c2cccc(C(F)(F)F)c2)c1` (centres unmarked) [Example 225], 200 to 1000 nM. Take `O=C([C@@H]1C[C@H]1c1ccc(F)cc1)N(Cc1cccnn1)[C@@H](c1ccc(OC(F)F)cc1)C1CC1` [Example 97, (1R,2R)-2-(4-Fluoro-phenyl)-cyclopropanecarboxylic acid [(R)-cyclopropyl-(4-difluoromethoxy-phenyl)-methyl]-pyridazin-3-ylmethyl-amide]: the IC50 is less than 50 nM. The same measure for `CCC(c1ccc(S(C)(=O)=O)cc1)N(Cc1ccc(F)cn1)C(=O)C1CC1c1ccc(F)cc1` (centres unmarked) [Example 122]: 50 to 200 nM; for `CC(c1ccc2c(c1)[S+]([O-])C(C)(C)O2)N(Cc1ccccn1)C(=O)CCc1cccc(C(F)(F)F)c1` (centres unmarked) [Example 63, N-[1-(2,2-dimethyl-3-oxido-1,3-benzoxathiol-5-yl)ethyl]-N-(pyridin-2-ylmethyl)-3-[3-(trifluoromethyl)phenyl]propanamide]: 1000 to 2000 nM; for `CC(C)C(c1ccc(OC(F)F)cc1)N(Cc1ccc(F)cn1)C(=O)C1CC1c1ccc(F)cc1` (centres unmarked) [Example 110]: less than 50 nM. As for `CC(C)C(c1ccc(OC(F)F)cc1)N(Cc1cccnn1)C(=O)C1CC1c1ccc(F)cc1` (centres unmarked) [Example 113], the IC50 was in the range of 200 to 1000 nM. With `CC(C)C(c1ccc(OC(F)F)cc1)N(Cc1ccc(F)cn1)C(=O)C1CC1c1ccc(F)cc1F` (centres unmarked) [Example 115] the figure was 50 to 200 nM; with `CCC(c1ccc(S(C)(=O)=O)cc1)N(Cc1ccc(C(F)(F)F)nc1)C(=O)C1CC1c1ccc(F)cc1F` (centres unmarked) [Example 127], 50 to 200 nM; with `CCS(=O)(=O)c1cccc(C(C2CC2)N(Cc2cncc(F)c2)C(=O)C2CC2c2ccc(F)cc2)c1` (centres unmarked) [Example 214], 50 to 200 nM.

As to `O=C(N(Cc1ccccn1)[C@H](c1ccc(OC(F)F)cc1)C1CC1)C1(S(=O)(=O)c2ccc(F)cc2)CC1` [Example 92, N-{cyclopropyl[4-(difluoromethoxy)phenyl]methyl}-1-[(4-fluorophenyl)sulfonyl]-N-(pyridin-2-ylmethyl)cyclopropanecarboxamide], the IC50 lay within 200 to 1000 nM. The same measure for `O=C(CS(=O)(=O)c1ccc(F)cc1)N(Cc1ccc(C(F)(F)F)nc1)C(c1ccc(OC(F)F)cc1)C1CC1` (centres unmarked) [Example 313]: 50 to 200 nM; for `O=C(CS(=O)(=O)c1ccccc1)N(Cc1ccc(C(F)(F)F)nc1)C(c1ccc(F)cc1)C1CCCO1` (centres unmarked) [Example 282]: 50 to 200 nM.

For the molecule `CCc1noc(C(C)N(Cc2ccccn2)C(=O)CC(C)c2ccc(F)cc2)n1` (centres unmarked) [Example 87], the IC50 was 200 to 1000 nM. The same measure for `C[C@H](CC(=O)N(Cc1ccccn1)C(c1ccc(Cl)cc1)C1CC1)c1ccc(F)cc1` (single isomer, unassigned) [Example 5]: less than 50 nM; for `O=C(CS(=O)(=O)c1ccccc1)N(Cc1cccnn1)C(c1ccc(OC(F)F)cc1)C1CC1` (centres unmarked) [Example 305]: 50 to 200 nM; for `CCS(=O)(=O)c1cccc(C(C2CC2)N(Cc2ccc(F)cn2)C(=O)C2CC2c2ccc(F)cc2F)c1` (centres unmarked) [Example 196]: 50 to 200 nM.

Turning to `O=C(CS(=O)(=O)c1cccc(C(F)(F)F)c1)N(Cc1ccccn1)C(c1ccc(Cl)cc1)C1CC1` (centres unmarked) [Example 294], the IC50 lay within 50 to 200 nM.

`CCC(c1ccc(S(C)(=O)=O)cc1)N(Cc1ccc(C(F)(F)F)nc1)C(=O)C1CC1c1ccc(F)cc1` (centres unmarked) [Example 121]: the IC50 is 50 to 200 nM.

Regarding `CN1CCC(C(c2ccc(OC(F)F)cc2)N(Cc2ccc(F)cn2)C(=O)C2CC2c2ccc(F)cc2)CC1` (centres unmarked) [Example 142], the IC50 was in the range of 200 to 1000 nM. As for `N#Cc1cccc(C(C2CC2)N(Cc2ccc(C(F)(F)F)nc2)C(=O)CS(=O)(=O)c2ccc(F)cc2)c1` (centres unmarked) [Example 333], the IC50 lay within 200 to 1000 nM. With `COc1ccccc1[C@H](C)N(Cc1ccccn1)C(=O)CCc1ccc(F)cc1` [Example 55, 3-(4-fluorophenyl)-N-[(1S)-1-(2-methoxyphenyl)ethyl]-N-(pyridin-2-ylmethyl)propanamide] the figure was 200 to 1000 nM; with `CCS(=O)(=O)c1cccc(C(C2CCN(C)CC2)N(Cc2ccc(F)cn2)C(=O)C2CC2c2ccc(F)cc2)c1` (centres unmarked) [Example 143], 200 to 1000 nM. The same measure for `CC(C)S(=O)(=O)c1ccc(C(C2CC2)N(Cc2ccc(F)cn2)C(=O)C2CC2c2ccc(F)cc2)cc1` (centres unmarked) [Example 239]: 200 to 1000 nM. The same measure for `CCC(c1ccc(S(C)(=O)=O)cc1)N(Cc1cccnn1)C(=O)C1CC1c1ccc(F)cc1` (centres unmarked) [Example 124]: 200 to 1000 nM.
